Measured values published in US20160075682A1, “INHIBITORS OF NICOTINAMIDE PHOSPHORIBOSYLTRANSFERASE, COMPOSITIONS, PRODUCTS AND USES THEREOF” (UNIVERSITÀ DEGLI STUDI DEL PIEMONTE ORIENTALE "AMEDEO …, priority 2013, published 2016).

Experiments:
NAMPT = target: T1, NAMPT (Homo sapiens, UniProt P43490); experiment: Direct inhibition of NAMPT enzymatic activity (Cyclex NAMPT colorimetric Assay Kit); type: biochemical; conditions: as assessed with a cycling assay
T1 construct: endogenous in cells; host or cells: SH-SY5Y and HeLa
Experimental: Determination of the direct activity of compounds on NAMPT was performed using a commercial kit, Cyclex NAMPT colorimetric Assay Kit.

[1] = system: DNBS-induced colitis in BALB/c mice; experiment: Experimental colitis induced by DNBS; type: in vivo; conditions: i.p.; for MPO in the colon / NAMPT in the colon / TNFalpha in the colon / VEGF in the colon: DNBS-treated mice, between 20 mg/Kg and 500 mg/Kg, compared to untreated colitis mice; for protection from DNBS-induced colitis as assessed by the macroscopic damage score: doses of between 20 mg/Kg and 500 mg/Kg
Experimental: Animal work was authorized by the local ethical committee for animal studies (Università del Piemonte Orientale). BALB/c mice (Harlan Nossan, Milan, Italy) were anesthetized by enflurane. Dinitrobenzene sulfonic acid (DNBS; 4 mg in 100 μl of 50% ethanol) was injected into the rectum through a catheter inserted 4.5 cm proximally to the anus. Carrier alone (100 μl of 50% ethanol) was administered in control experiments. Thereafter, the animals were kept for 15 minutes in a Trendelenburg position to avoid reflux. Treatment with either solvent alone or drugs was done immediately after induction and thereafter twice a day. […] On Day 4, the animals were weighed and anaesthetized with chloral hydrate, and the abdomen was opened by a midline incision. The colon was removed, freed from surrounding tissues, opened along the antimesenteric border, rinsed, weighed, and processed for histology, biochemical measurements and immunohistochemistry. Colon damage (macroscopic damage score) was evaluated and scored by two independent observers according to the following criteria: 0, no damage; 1, localized hyperemia without ulcers; 2, linear ulcers with no significant inflammation; 3, linear ulcers with inflammation at one site; 4, two or more major sites of inflammation and ulceration extending >1 cm along the length of the colon; and 5-8, one point is added for each centimeter of ulceration beyond an initial 2 cm. Biochemical and histological analysis also included TNFalpha measurements and myeloperoxidase (MPO) measurements by ELISA assay, and VEGF, NAMPT, COX-2 measurements by immunoblotting. (Esposito E, Mazzon E, Paterniti I, Dal Toso R, Pressi G, Caminiti R, Cuzzocrea S. PPAR-alpha Contributes to the Anti-Inflammatory Activity of Verbascoside in a Model of Inflammatory Bowel Disease in Mice. PPAR Res. 2010; 2010:917312).
(§1) As previously described, the colon of DNBS- or dextran treated animals was removed after the induction of colitis. Compounds of formula (I) were administered intraperitoneally (i.p.).

[2] = system: Dextran-induced colitis in C57/BJ6 mice; experiment: Experimental colitis induced by dextran sulfate sodium (DSS); type: in vivo; conditions: i.p., doses of between 20 mg/Kg and 500 mg/Kg
Experimental: Animal work was authorized by the local ethical committee for animal studies (Università del Piemonte Orientale). Colitis was induced in C57/BJ6 mice (Harlan Nossan, Milan, Italy) by addition of DSS (2%) to their daily drinking water for 7 days followed by a 3-day recovery period without DSS. The severity of colitis was assessed using these set of criteria: (1) clinical index (daily changes in body weight; diarrhea and rectal bleeding); (2) macroscopic evidence of colitis (shortening of colon length). On day 10 of the experiment, animals were sacrificed. Treatments were performed with either solvent alone or drugs once a day for the entire duration of the experiments from day 1 to day 7. The colon lengths were measured and colon tissues were harvested for biochemical measurements, histopathological assessment and scoring. (Tang Y, Preuss F, Turek F W, Jakate S, Keshavarzian A. Sleep deprivation worsens inflammation and delays recovery in a mouse model of colitis. Sleep Med. 2009 June; 10(6):597-603).
as §1

[3] = Metabolites generated from hydrolyses in RLM or HLM incubations (LC-ESI-MS); type: in vitro ADME, rat, human; conditions: RLM or HLM incubation, 60 minutes at 37° C.
Experimental: Male Wistar rat liver microsomes (RLM), (protein concentration: 25 mg/ml determined using the Omura and Sato method, total P450: 0.64 nmol/mg protein) were used throughout this study and prepared using an internal protocol. The cryopreserved pooled human liver microsomes (HLM), (pooled mixed sex, ten individual donors, protein concentration: 20 mg/ml, total P450: 0.36 nmol/mg) were purchased from BD Gentest™ (Woburn, Mass.) and used throughout this study.
The standard incubation mixture (1 ml final volume), was carried out in a 50 mM TRIS (Tris[hydroxymethyl]aminomethane) buffer (pH 7.4) containing 10 μl of acetonitrile (1% of total volume), and 50 μM substrate compounds. After pre-equilibration of the mixture, an appropriate volume of RLM or HLM suspension was added to give a final protein concentration of 1.0 mg/mL. The mixture was shaken for 60 minutes at 37° C. Control incubations were carried out without microsomes. Each incubation was stopped by addition of 1 ml ice-cold acetonitrile, vortexed and centrifuged at 11,000 r.p.m. for 5 min. The supernatants were analysed by LC-DAD-UV and LC-ESI-MS systems to determine the metabolic stability (% substrate residue) and the structure of metabolites respectively (Table 1).
A Shimadzu HPLC system (Shimadzu, Kyoto, Japan), consisting of two LC-10AD Vp module pumps, an SLC-10A Vp system controller, an SIL-10AD Vp autosampler, and a DGU-14-A on-line degasser were used for the analysis. Chromatographic separation was performed on a Phenomenex Luna C18(2) 150×4.6 mm (5 μm) (Phenomenex srl, Castel Bolognese, Italy) as a stationary phase protected by a C18 SecurityGuard (Phenomenex srl, Castel Bolognese, Italy). The SPD-M10Avp photodiode array detector was used to detect the analytes. LC-Solution 1.24 software was used to process the chromatograms. Aliquots (20 μL) of supernatants obtained from incubations were injected onto the HPLC system and eluted with a mobile phase (flow rate 1.0 mL/min) consisting of a A: 0.5% formic acid solution, B: acetonitrile/methanol 8:2. A Thermo Finningan LCQ Deca XP plus system equipped with a quaternary pump, a Surveyor AS autosampler, a Surveyor photodiode array detector and a vacuum degasser was used for LC/MS analyses (Thermo Electron Corporation, Waltham, Mass.). All the chromatographic separations were performed on a Phenomenex Luna C18(2)150×2 mm (4 μm) (kept at a 35° C.) as a stationary phase protected by a C18 SecurityGuard (Phenomenex srl, Castel Bolognese, Italy). Aliquots (2.0 μl) of supernatants obtained from incubations were injected onto the system and eluted with a mobile phase (flow rate 0.2 ml/min) consisting of a A: 0.2% formic acid solution, B: acetonitrile/methanol 8:2. The eluate was injected into the electrospray ion source (ESI) and MS and MS^n spectra were acquired and processed using Xcalibur® software. The operating conditions on the ion trap mass spectrometer were as follows: Positive mode, spray voltage, 5.30 kV; source current, 80 μA; capillary temperature, 350° C.; capillary voltage, 21.00 V; tube lens offset, 15.00 V; multipole 1 offset, −5.75 V; multipole 2 offset, −9.00 V; sheath gas flow (N2), 55 Auxiliary Units.

T1 sequence (P43490 whole entry): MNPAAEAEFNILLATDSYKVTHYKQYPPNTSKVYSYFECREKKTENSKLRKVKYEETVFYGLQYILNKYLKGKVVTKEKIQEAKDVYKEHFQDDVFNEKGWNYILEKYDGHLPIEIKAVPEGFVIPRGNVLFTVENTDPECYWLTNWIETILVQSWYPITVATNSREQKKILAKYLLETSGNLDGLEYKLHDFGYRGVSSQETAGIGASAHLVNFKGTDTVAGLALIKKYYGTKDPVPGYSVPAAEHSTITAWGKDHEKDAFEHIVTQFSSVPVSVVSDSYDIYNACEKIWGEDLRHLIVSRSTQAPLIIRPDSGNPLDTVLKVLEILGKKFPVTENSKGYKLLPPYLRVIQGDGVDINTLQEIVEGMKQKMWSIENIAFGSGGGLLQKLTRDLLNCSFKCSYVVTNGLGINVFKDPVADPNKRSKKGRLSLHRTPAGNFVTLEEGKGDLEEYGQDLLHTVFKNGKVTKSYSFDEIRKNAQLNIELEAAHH

Row | SMILES | inhibition of the enzymatic activity of NAMPT (NAMPT) | MPO in the colon [1] | NAMPT in the colon [1] | TNFalpha in the colon [1] | VEGF in the colon [1] | protection from DNBS-induced colitis as assessed by the macroscopic damage score [1] | protection from Dextran-induced colitis as assessed by the macroscopic damage score [2] | Metabolites generated from hydrolyses [3]
1 | O=C(NCCCCCCCn1cc(-c2cccnc2)nn1)c1ccccc1-c1ccccc1 [N-(7-(4-(pyridin-3-yl)-1H-1,2,3-triazol-1-yl)heptyl)-[1,1′-biphenyl]-2-carboxamide] | able to inhibit | able to reduce | able to reduce | able to reduce | able to reduce | able to protect | able to protect | no
2 | c1ccc(-c2ccccc2OCCCCCCn2cc(-c3cccnc3)nn2)cc1 [3-(1-(6-([1,1′-biphenyl]-2-yloxy)hexyl)-1H-1,2,3-triazol-4-yl)pyridine] | able to inhibit | able to reduce | able to reduce | able to reduce | able to reduce | able to protect | able to protect | no
